In patent US20100158829A1, “Method and Composition for Color Modulation” (Conopco, Inc., d/b/a UNILEVER, priority 2008, published 2010):

Columns and labels:
mushroom tyrosinase [1] = test: Mushroom tyrosinase assay with L-dopa; type: biochemical; conditions: Tested at 1 μM
D-dopachrome tautomerase = D-dopachrome tautomerase (Homo sapiens, UniProt P30046); test: D-dopachrome tautomerase (DDT) enzyme assay with D-dopachrome substrate; type: biochemical; conditions: for D-Dopachrome Tautomerase at 100 μM (% of control): test compound 100 μM, remaining activity, 100% = inactive; for IC50: DDT assays similar to those described in Example 2
Protocol: A 125-mM sodium periodate working solution was prepared in H2O in an amber 5-mL vial (prepared fresh on the day of the assay). 4.3 mg of dihydroxy-D-phenylalanine (D-dopa) were weighed into a 20 mL scintillation vial equipped with a pierceable septa screw cap. With the use of a liquid transfer cannula, 12 mL of degassed buffer was first transferred into a 15 mL graduated conical tube and subsequently poured into the scintillation vial containing the D-dopa. The D-dopa was dissolved for ten (10) minutes while stirring under nitrogen. The resulting working solution was 1.8 mM. Once sodium periodate was added to the dissolved D-dopa, the resulting D-dopachrome was utilized immediately to prevent substrate degradation.
Concentrations were based on a final reaction volume of 200 μL. A total of 75 μL of buffer (100 mM potassium phosphate, pH 6.8) was added to each well of a clear flat bottom 96-well microtiter plate. To the blank control wells (no DDT), 25 μL of 10% glycerol/assay buffer was added. DMSO (5 μL) was added to blank wells and to the enzyme control wells (DDT alone with no inhibitors). […] To the remaining wells, 5 μL of test compounds diluted in DMSO was added for a final concentration of 100 μM. Lastly, 25 μL of DDT in assay buffer was added to all wells except for the substrate control wells. The concentration of DDT utilized was such that it produced a ΔOD475 of approximately 1.0 at the 40-second read time point between the blank and total.
With the use of a 1 mL syringe, 0.33 ml of the 125 mM sodium periodate working solution was added to the dissolved D-dopa and stirred for 30 seconds. The resulting D-dopachrome was transferred to a reagent reservoir and 100 μL immediately added to the first row of interest in the assay plate (resulting final substrate concentration in the assay is 0.9 mM). The plate was shaken for 2 seconds on a Spectromax plate reader and the decrease in absorbance measured over 40 seconds. 100 μL of D-dopachrome was added to the next row of interest in the assay plate and this procedure was repeated until four (4) rows were assayed and read. Often approximately 6-7 minutes, the remaining substrate was discarded.
Percent inhibition was calculated utilizing the OD values at the 40-second time point according to the following formula:
• A=percent inhibition of the unknown; • B=average percent inhibition for the 4 positive control values (within 4 distinct assay rows) generated with a single batch of substrate also used to assay the unknown of interest; • C=percent inhibition for the positive control for the assay row of interest which contains the unknown compound of interest.

mushroom tyrosinase [2] = test: Mushroom tyrosinase assay with L-dopa; type: biochemical; conditions: for Mushroom Tyrosinase at 100 μM (% of control): test compound 100 μM, percent of untreated control reaction
Protocol: A stock solution of 10 mM L-dopa (3,4-Dihydroxyphenylalanine, Sigma Cat #D9628) was prepared in sodium phosphate buffer (100 mM, pH 7.0) along with a stock solution of 0.1 mg/mL (605 units/ml) mushroom tyrosinase (Sigma cat #T7755) in phosphate buffer and stored at […] 4° C. until use.
Test compounds (dissolved in DMSO) were first diluted in phosphate buffer to working concentrations of 1 mM. For each test, 150 μL of phosphate buffer, 10 μL of the L-dopa stock and 20 μL of each compound were added to each well of a 96 well clear bottom microtiter plate and mixed three times. 20 μL of mushroom tyrosinase stock solution was added, mixed and the absorbency read at 475 nm at 0, 2, 4, and 6.5 minutes. The points were plotted as absorbency vs. time and the slope of the line calculated. Values are expressed as the percent of the respective untreated control reaction. The final DMSO concentration in each sample was less than or equal to 1.0%

[3] = test system: Melanoderm tissue equivalent model MEL-300 containing melanocytes; test: Melanoderm tissue equivalent model, total melanin content; type: cell-based; conditions: 10 μM in maintenance medium, 14 days
Protocol: Melanoderm™ tissue equivalent model MEL-300 (MatTek: Ashland, Mass.) containing melanocytes obtained from dark skin individuals were cultured as per supplier instructions. Components were added to the maintenance medium phase (no topical treatments) at a final concentration of 10 μM for 14 days at which time the experiment was terminated and the tissues assessed for melanin content. Medium and treatments were changed three times per week. DMSO was utilized as the vehicle control and all treatments were performed in duplicate.
For quantification of total melanin, each Melanoderm was placed into an individual Eppendorf tube (2 mL) into which 250 μL of Solvable™ tissue solubilizer (Packard Bioscience Co., Cat#6NE9100) was added. Each tube was vortexed and incubated at 60° C. for 18 hours. After about […], each sample was centrifuged (5-minutes at 13,000 RPMs) to remove any particulates. One hundred μL of supernatant were transferred to a 96 well microtiter plate and the absorbance read at 490 nm. Total melanin content was calculated from a standard curve using synthetic melanin (Sigma Cat#M8631).
All the following components were tested at a final concentration of 10 μM: […]

D-dopachrome tautomerase, sequence (P30046 2-118 limits assumed): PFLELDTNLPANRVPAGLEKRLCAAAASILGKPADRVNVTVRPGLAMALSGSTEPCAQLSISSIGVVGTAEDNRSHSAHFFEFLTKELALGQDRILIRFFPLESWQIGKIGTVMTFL

| Compound | D-Dopachrome Tautomerase at 100 μM (% of control) (D-dopachrome tautomerase) | Mushroom Tyrosinase at 100 μM (% of control) (mushroom tyrosinase [2]) | also measured |
| --- | --- | --- | --- |
| CCc1ccc(O)cc1O [4-Ethyl Resorcinol, reference compound] | 100% of control | – | Mushroom Tyrosinase (% of control) (mushroom tyrosinase [1]): 42.3% of control; activity in the DDT assay (in words) (D-dopachrome tautomerase): inactive; inhibition of mushroom tyrosinase (in words) (mushroom tyrosinase [2]): potent inhibitor |
| O=C(O[C@@H]1Cc2c(O)cc(O)cc2O[C@@H]1c1cc(O)c(=O)c2c(O)c(O)cc([C@H]3Oc4cc(O)cc(O)c4C[C@H]3OC(=O)c3cc(O)c(O)c(O)c3)c2c1)c1cc(O)c(O)c(O)c1 [Theaflavin Digallate] | – | – | Reduction in Melanin [3]: 26.6% |
| Oc1nc2cc(I)c(I)cc2o1 [5,6-diiodobenzo[d]oxazol-2-ol] | 56.1% of control | 99.3% of control | – |
| NC(=O)c1nsc(C(=O)N(c2ccccc2)C(C(=O)NC2CCCC2)c2cccs2)c1N (stereo not drawn) [N5-((cyclopentylcarbamoyl)(thiophen-2-yl)methyl)-4-amino-N5-phenylisothiazole-3,5-dicarboxamide] | 66.8% of control | 101.8% of control | – |
| O=c1c(O)c(-c2ccc(O)cc2O)oc2cc(O)cc(O)c12 [Morin, 2-(2,4-dihydroxyphenyl)-3,5,7-4H-1-benzopyran-4-one] | – | – | IC50 (D-dopachrome tautomerase): 27.4 µM; Reduction in Melanin [3]: 7.2% |
| CCc1ccc(NC(=O)/C=C/C(=O)O)cc1 [(E)-3-(4-ethylphenylcarbamoyl)acrylic acid] | 40.5% of control | 89.4% of control | – |
| CC(C)CC(C(=O)NC1CCCC1)N(C(=O)c1snc(C(N)=O)c1N)c1ccc(F)cc1 (stereo not drawn) [N5-(1-(cyclopentylcarbamoyl)-3-methylbutyl)-4-amino-N5-(4-fluorophenyl)isothiazole-3,5-dicarboxamide] | 65.7% of control | 100.6% of control | – |
| CC(C)(C)C1CCc2c(sc(NC(=O)/C=C/C(=O)O)c2C#N)C1 (stereo not drawn) [(E)-3-(6-tert-butyl-3-cyano-4,5,6,7-tetrahydrobenzo[b]thiophen-2-ylcarbamoyl)acrylic acid] | 8.4% of control | 88.2% of control | – |
| O=C1C=CC(=O)c2c(O)cccc21 [Juglone, 5-hydroxy-1,4-naphthalenedione] | – | – | IC50 (D-dopachrome tautomerase): 14.9 µM; Reduction in Melanin [3]: 32.8% |
| CCOC(=O)c1c(NC(=O)/C=C/C(=O)O)sc2c1CCC(C(C)(C)CC)C2 (stereo not drawn) [(E)-3-(3-(ethoxycarbonyl)-6-tert-pentyl-4,5,6,7-tetrahydrobenzo[b]thiophen-2-ylcarbamoyl)acrylic acid] | 14.9% of control | 90.8% of control | – |
| O=c1c(-c2cc(O)c(O)c(O)c2)coc2cc(O)c(O)c(O)c12 [Irigenol, 5,6,7-trihydroxy-3-(3,4,5-trihydroxyphenyl)-4H-1-benzopyran-4-one] | – | – | IC50 (D-dopachrome tautomerase): 37.4 µM; Reduction in Melanin [3]: 7.0% |
| CCCCC/C=C\C/C=C\C/C=C\C/C=C\CCCC(=O)O [arachidonic acid, reference compound] | – | – | inhibition at 75 µM (D-dopachrome tautomerase; 75 μM final concentration, read-out: inhibition of DDT (positive control)): ~50% |
| CC(C)CC(C(=O)NC1CCCC1)N(C(=O)c1snc(C(N)=O)c1N)c1ccccc1 (stereo not drawn) [N5-(1-(cyclopentylcarbamoyl)-3-methylbutyl)-4-amino-N5-phenylisothiazole-3,5-dicarboxamide] | 69.2% of control | 89.4% of control | – |
| CC(C)CC(C(=O)NC1CCCC1)N(C(=O)c1snc(C(N)=O)c1N)c1cccc(F)c1 (stereo not drawn) [N5-(1-(cyclopentylcarbamoyl)-3-methylbutyl)-4-amino-N5-(3-fluorophenyl)isothiazole-3,5-dicarboxamide] | 64.9% of control | 105.2% of control | – |
| sodium isostearoyl lactylate | – | – | IC50 (D-dopachrome tautomerase): 14.6 µM; Reduction in Melanin [3]: 6.2% |

Continued, in another order:

| D-Dopachrome Tautomerase at 100 μM (% of control) (D-dopachrome tautomerase) | Mushroom Tyrosinase at 100 μM (% of control) (mushroom tyrosinase [2]) | Compound | also measured |
| --- | --- | --- | --- |
| 52.3% of control | 101.9% of control | CC(C)(C)NC(=O)C(c1ccc(F)cc1)N(C(=O)c1snc(C(N)=O)c1N)c1ccccc1 (stereo not drawn) [N5-((tert-butylcarbamoyl)(4-fluorophenyl)methyl)-4-amino-N5-phenylisothiazole-3,5-dicarboxamide] | – |
| 40.9% of control | 96.0% of control | CC(C)(C)NC(=O)C(c1c[nH]c2ccccc12)N(C(=O)c1snc(C(N)=O)c1N)c1ccccc1 (stereo not drawn) [N5-((tert-butylcarbamoyl)(1H-indol-3-yl)methyl)-4-amino-N5-phenylisothiazole-3,5-dicarboxamide] | – |
| 69.9% of control | 98.6% of control | CC(C)(C)NC(=O)C(c1ccc(F)cc1)N(Cc1ccccc1)C(=O)c1snc(C(N)=O)c1N (stereo not drawn) [N5-((tert-butylcarbamoyl)(4-fluorophenyl)methyl)-4-amino-N5-benzylisothiazole-3,5-dicarboxamide] | – |
| 48.0% of control | 106.1% of control | CC(C)(C)NC(=O)C(c1ccc(F)cc1)N(C(=O)c1snc(C(N)=O)c1N)c1cccc(F)c1 (stereo not drawn) [N5-((tert-butylcarbamoyl)(4-fluorophenyl)methyl)-4-amino-N5-(3-fluorophenyl)isothiazole-3,5-dicarboxamide] | – |
| 65.3% of control | 100.0% of control | CNC(=O)c1ccccc1NC(=O)c1c(O)nc2c(c1O)CCCC2 [N-(2-(methylcarbamoyl)phenyl)-5,6,7,8-tetrahydro-2,4-dihydroxyquinoline-3-carboxamide] | – |
| 64.3% of control | 102.5% of control | CCCC(C(=O)NC(C)(C)C)N(Cc1ccccc1Cl)C(=O)c1snc(C(N)=O)c1N (stereo not drawn) [N-5-(1-(tert-butylcarbamoyl)butyl)-N5-(2-chlorobenzyl)-4-aminoisothiazole-3,5-dicarboxamide] | – |
